Key:
[1] = system: isolated guinea-pig trachea specimen; experiment: Effect on the KCl-induced contraction of the isolated guinea-pig trachea specimen; assay type: cell-based
Procedure: Effect on the KCl-induced contraction of the isolated guinea-pig trachea specimen
As in Experimental Example 1, potassium channel activating activity was evaluated by comparing the relaxing effects of the test drug on 20 mM KCl-induced contraction and 100 mM KCl-induced contraction.
Male 5-13-week-old Hartley guinea pigs (body weights 400-730 g) were used in groups of 2-4. After the animal was bled to death under ether anesthesia, the trachea was isolated and 4 tracheal strips were connected to prepare a specimen in accordance with the method of Takagi et al. (Chem. Pharm. Bull., 6, 716-720 (1958)). The experiment was performed in the same manner as described in Experimental Example 1.

[2] = system: blood pressure in anesthetized rats; experiment: Effect on blood pressure in anesthetized rats; assay type: in vivo, rat; details: 100 mg/kg intraduodenally; urethane-anesthetized female SD rats; % change at time of maximal action, up to 3 hours
Procedure: Effect on blood pressure in anesthetized rats
Female 10-13-week-old SD rats (body weights 180-300 g) fasted from the previous day were used in groups of 2-4. The animal was placed in supine position under urethane anesthesia and the femoral artery was cannulated for blood pressure measurement. The blood pressure was recorded on a recorder through the cannula and a pressure transducer. When the blood pressure had stabilized, the test drug was administered intraduodenally and the effect on blood pressure was monitored up to 3 hours after administration.
Each value is expressed as the average of % changes at the time of maximal action.

[3] = system: isolated rat aorta specimen; experiment: Effect on KCl-induced contraction of the isolated rat aorta specimen; assay type: cell-based; details: papaverine (100 μM) = 100% relaxation
Procedure: Effect on KCl-induced contraction of the isolated rat aorta specimen
In the present experiment, potassium channel activating activity was evaluated by comparing the pIC50 values representing the relaxing effects of the test drug on the 20 mM KCl-induced contraction and 100 mM KCl-contraction. According to Br. J. Pharmacol., 88, 103-111 (1986) referred to above, potassium channel activators produce greater relaxing effects on 20 mM KCl-induced contraction than on 100 mM KCl-induced contraction.
Male 7-13-week-old SD rats (body weights 240-480 g) were used in groups of 4-6. After the animal was bled to death under ether anesthesia, the throacic aorta was isolated and dissected into a spiral specimen about 2 mm wide×about 20 mm long. Each specimen was suspended in a 10 ml Magnus bath containing Krebs-Henseleit solution (KH solution) aerated with 95% O2+5% CO2 at 37° C. A tension load of 1 g was applied and with the KH solution exchanged every 20 minutes, the specimen was equilibrated for about 90 minutes. Then, the experiment was commenced. The change in tension of the specimen was recorded on a recticorder through an isometric tension transducer. The specimen was caused to contract by replacing the KH solution in the Magnus bath with 20 mM or 100 mM KCl-containing KH solution (NaCl in KH solution was replaced with an equimolar amount of KCl) and when the contractile response had reached plateau, the test drug was cumulatively applied to evaluate the relaxing effect.
Each result was expressed in the average of the relaxation ratio obtained in the presence of the test drug, with the maximum relaxation found with papaverine (100 μM) being taken as the 100% relaxation response of the specimen.

N#Cc1cc(-c2ccc3c(c2)OCO3)[nH]c1N1CCCC1 [Compound 11, 3-Cyano-5-(3,4-methylenedioxyphenyl)-2-pyrrolidinopyrrole]
Relaxation effect (%) 20 mM KCl-induced contraction ([1]; 10 μM): 37%
Relaxation effect (%) 100 mM KCl-induced contraction ([1]; 10 μM): 4%

Cc1c(-c2ccco2)[nH]c(N)c1C#N [Compound 4, 2-Amino-3-cyano-5-(2-furyl)-4-methylpyrrole]
Hypotensive effect (%) [2]: 25.6%
Relaxation effect (%) 20 mM KCl-induced contraction ([3]; 10 μM): 64%
Relaxation effect (%) 100 mM KCl-induced contraction ([3]; 10 μM): 12%

N#Cc1cc(-c2ccc3c(c2)OCO3)[nH]c1N [Compound 5, 2-Amino-3-cyano-5-(3,4-methylenedioxyphenyl)pyrrole]
Relaxation effect (%) 20 mM KCl-induced contraction ([1]; 10 μM): 58%
Relaxation effect (%) 100 mM KCl-induced contraction ([1]; 10 μM): −7%
Relaxation effect (%) 20 mM KCl-induced contraction ([3]; 10 μM): 73%
Relaxation effect (%) 100 mM KCl-induced contraction ([3]; 10 μM): 18%

N#Cc1cc(-c2ccc(F)cc2F)[nH]c1N [Compound 6, 2-Amino-3-cyano-5-(2,4-difluorophenyl)pyrrole]
Relaxation effect (%) 20 mM KCl-induced contraction ([3]; 10 μM): 92%
Relaxation effect (%) 100 mM KCl-induced contraction ([3]; 10 μM): 24%

Cc1[nH]c(-c2ccccc2)c(C)c1C#N [Compound 9, 3-Cyano-2,4-dimethyl-5-phenylpyrrole]
Relaxation effect (%) 20 mM KCl-induced contraction ([1]; 10 μM): 79%
Relaxation effect (%) 100 mM KCl-induced contraction ([1]; 10 μM): 39%

Cc1c(-c2cccc([N+](=O)[O-])c2)[nH]c(N)c1C#N [Compound 8, 2-Amino-3-cyano-4-methyl-5-(3-nitrophenyl)pyrrole]
Relaxation effect (%) 20 mM KCl-induced contraction ([1]; 3 μM): 58%
Relaxation effect (%) 100 mM KCl-induced contraction ([1]; 3 μM): −2%

Cc1c(-c2ccccc2)[nH]c(N)c1C#N [Compound 2, 2-Amino-3-cyano-4-methyl-5-phenylpyrrole]
Hypotensive effect (%) [2]: 25.9%
Relaxation effect (%) 20 mM KCl-induced contraction ([3]; 10 μM): 78%
Relaxation effect (%) 100 mM KCl-induced contraction ([3]; 10 μM): 17%

CCOc1cccc(-c2cc(C#N)c(N3CCCC3)[nH]2)c1 [Compound 10, 3-Cyano-5-(3-ethoxyphenyl)-2-pyrrolidinopyrrole]
Relaxation effect (%) 20 mM KCl-induced contraction ([1]; 3 μM): 37%
Relaxation effect (%) 100 mM KCl-induced contraction ([1]; 3 μM): −15%

Cc1c(-c2ccccc2F)[nH]c(N)c1C#N [Compound 1, 2-Amino-3-cyano-5-(2-fluorophenyl)-4-methylpyrrole]
Relaxation effect (%) 20 mM KCl-induced contraction ([3]; 10 μM): 82%
Relaxation effect (%) 100 mM KCl-induced contraction ([3]; 10 μM): 28%

Cc1c(-c2cccc(Cl)c2)[nH]c(N)c1C#N [Compound 3, 2-Amino-5-(3-chlorophenyl)-3-cyano-4-methylpyrrole]
Hypotensive effect (%) [2]: 14.1%
Relaxation effect (%) 20 mM KCl-induced contraction ([3]; 1 μM): 45%
Relaxation effect (%) 100 mM KCl-induced contraction ([3]; 1 μM): 6%

Cc1[nH]c(-c2cccc(Cl)c2)cc1C#N [Compound 7, 5-(3-Chlorophenyl)-3-cyano-2-methylpyrrole]
Relaxation effect (%) 20 mM KCl-induced contraction ([1]; 3 μM): 64%
Relaxation effect (%) 100 mM KCl-induced contraction ([1]; 3 μM): 31%

From patent US6353016B1, “Potassium channel activators” (Nippon Shinyaku Co., Ltd., priority 1998, dated 2002)
